Measured values: US20220397569A1, “ASSAY FOR RAPID EVALUATION OF CHOROIDAL MAST CELL DEGRANULATION” (THE JOHNS HOPKINS UNIVERSITY, priority 2019, published 2022)
Where a name gives a salt, the structure may show the parent alone. Read-outs that look alike come from different tables or passages of the source.

Assays:
[1] = mice, osteoarthritis model; cited from earlier work
[2] = test system: choroidal MC degranulation; format: in vivo, rat
Protocol: Hydrogel preparation and injection. […] All components were then mixed together by vortex and placed on ice. The final solution was loaded into an insulin syringe with a 31-gauge needle (BD Biosciences, San Jose, Calif., USA) and then, exposed to UV light (AnalytikJena, Upland, Calif., USA) for 1.5 minutes. The release and stability of the hydrogel were evaluated in vitro in PBS, pH 7.4 at 37° C.20. The amount of 48/80 released was measured using bicinchoninic acid (BCA) assay.
Alcian blue staining. After RPE removal, eyecups were fixed in methanol-formalin-acetic acid cocktail for 30 minutes and MCs were further stained with 0.05% Alcian blue (pH 5.0) in 0.02 M sodium acetate buffer for 45 minutes. Choroids were isolated after eyecups were split at the meridian and the number of non-degranulated and degranulated MCs were counted.
RPE degeneration. After the choroid/sclera eyecup was stained with anti-RPE65 Ab, 4-5 fields from the gel and non-gel areas of each choroid were captured as optimized z-stacks at 10 or 20× magnification with Zeiss LSM710. Images were exported to ImageJ software, converted into 8-bit gray color and then, thresholded. The dark area was considered degenerating RPE. To exclude the area of RPE nucleus (unstained with anti-RPE65 Ab, therefore dark) from the total dark area, particle sizes ranging from 100-infinity (pixels^2) were analyzed so nuclei were excluded. Percentage of RPE degeneration was averaged per choroid and then, quantified.
Retinal and choroidal thickness. Eight μm cryosections through the optic nerve were stained with Picrosirius Red Stain Kit (Polysciences, Inc, Warrington, Pa., USA) for 5 minutes as recommended by the manufacturer. After rinsing in hydrochloric acid and dehydrating in ethanol, sections were cover-slipped with Permount Mounting Medium (Thermo Fisher Scientific, Waltham, Mass., USA). The sections were then imaged with a Zeiss Photomic II microscope at 10×, and adjacent overlapping images of each section were taken from Ora serrata to Ora serrata. The overlapping images were then stitched using Adobe Photoshop and a panorama image was generated. The entire retina and choroid of each panorama image was precisely hand-traced and areas of the retina and choroid, respectively, were measured using ImageJ.
(§1) Electroretinogram (ERG). After overnight dark adaptation, rats were deeply anesthetized followed by pupil dilation. The rats were placed on a heated platform and full-field scotopic ERGs were elicited by white light flashes with corneal electrodes at intensities ranging from 0.01 to 1 cd·s/m^2 using the Celeris ERG system (Diagnosys LLC, Lowell, Mass., USA). The amplitude of the a- and b-waves was measured from the a-wave trough to the b-wave peak.
Volumetric and sphericity measurement. Volumetric and sphericity measurements were performed in the rats to analyze changes in shape and size of choroidal macrophages/monocytes stained with Iba1 as previously reported.^23 Briefly, randomly chosen 4-5 fields of optimized 40× magnification z-stacks per choroid captured with Zeiss LSM710 were opened in Surpass View of Imaris software and surfaces (surface detail 1.5 μm) were created, using background subtraction (0.5 μm). Voxel number filtering was applied to remove nonspecific particles in the surfaces created. Cells touching others or ones which had only a portion of the cell body visible were omitted from the volume rendering and then, the cell volume and sphericity were quantified with Imaris software.
(§2) Drug treatments. Rats were pretreated for 1-2 days prior to 48/80 hydrogel injection with either oral treatment of ketotifen fumarate (15 mg/kg) or PBS twice daily. MC tryptase inhibitor APC 366 (5 mg/kg, CAS 258932-85-8, R&D Systems, Minneapolis, Minn.)^24 or control vehicle was administered subcutaneously once daily for 8 weeks.

[3] = rats; cited from earlier work
choroidal MCs [4] = assay: Ex vivo eyecup assay after oral pretreatment of rats; set-up: species or system rat; settings: oral 15 mg/kg twice daily for 4 days prior to enucleation; eyecups in 48/80 300 μg/ml 3 hours; compared to PBS
Protocol: (§3) Ex vivo assays. An ex vivo assay was developed to evaluate drugs quickly and efficiently. After enucleation, the anterior segments and retinas were excised and the eyecups were split at the meridian and divided in halves. Then, eyecups were incubated with 300 μg/mL of 48/80 with or without 300 μg/mL of ketotifen fumarate in serum free DMEM in a 48-well plate for 3 hours. To evaluate oral ketotifen fumarate potential to prevent MC degranulation, rats were treated orally twice daily with ketotifen fumarate (15 mg/kg) in PBS or with PBS as control for 4 days and 2 hours prior to enucleation on the 5th day. Eyes were enucleated and exposed in 48/80 serum free DMEM for 3 hours. After washing, RPE was removed and the eyecup fixed for histochemistry. The choroid was isolated from the sclera and MCs were stained for NSE activity and viewed on the Zeiss LSM710 for the autofluorescence of the reaction product. The numbers of non-degranulated and degranulated cells were counted in the whole choroid. […]
(§4) Volumetric and sphericity measurement. […] Cells touching others or ones which had only a portion of the cell body visible were omitted from the volume rendering and then, the cell volume and sphericity were quantified with Imaris software.

[5] = Tolerability of oral ketotifen fumarate in rats (RPE, body weight, ERG); format: in vivo, rat
Protocol: as §1, §2

choroidal MCs [6] = assay: Ex vivo eyecup assay, co-incubation with 48/80 (MC degranulation, macrophage volume and sphericity); format: cell-based; settings: S/D rat eyecups, 48/80 300 μg/mL with ketotifen fumarate 300 μg/mL, 3 hours
Protocol: as §3, §4

[7] = Pharmacokinetic study of oral ketotifen fumarate in eye tissue (LC/MS-MS); format: in vivo, rat; settings: 3 mg/kg once daily by gavage, sacrificed on the 5th day
Protocol: Pharmacokinetic study. Ketotifen fumarate quantification in plasma and eye tissue was conducted using high-performance liquid chromatography with tandem mass spectrometry (LC/MS-MS). Briefly, acetonitrile containing 0.5 μM losartan as internal standard was used to extract ketotifen from choroid and retina. Standards were prepared by spiking ketotifen fumarate in naive tissue from […] in a half log dilution series. Samples were weighed and placed in low retention microcentrifuge tubes with 5 μL extraction solution/mg tissue and pestle homogenized. Samples were vortexed followed by centrifugation at 16 000 g for 5 minutes at 4° C. The supernatants were transferred to a 96-well plate and 2 μL were injected for analysis. Samples were analyzed on an UltiMate 3000 UHPLC coupled to Q Exactive Focus orbitrap mass spectrometer (Thermo Fisher Scientific, Waltham, Mass., USA) using an Agilent EclipsePlus C18 RRHD (1.8 μm; 2.1. 100 mm) column. The mobile phase consisted of water+0.1% formic acid, and acetonitrile+0.1% formic acid. […] Samples were analyzed in positive ion mode via heated electrospray with capillary temperature set at 350° C. and a spray voltage of 3.5 kV. […] Data were acquired and quantified with Xcalibur software (Thermo Fisher Scientific, Waltham, Mass., USA).

RBL-2H3 cells = assay: β-hexosaminidase release assay for MC degranulation in RBL-2H3 cells; format: cell-based; settings: Rattus norvegicus, RBL-2H3, 0.75 h; 48/80 10 μg/mL, ketotifen fumarate 10 μg/mL, 45 minutes
Protocol: In vitro assays. RBL-2H3 cells (CRL-2256, ATCC, Manassas, Va., USA) were used for the in vitro assay for MC degranulation. Cell degranulation was assessed by the (3-hexosaminidase release as previously described.^22 A density of 50 000 cells/well was plated overnight in a 96-well plate. Ten μg/mL of 48/80 or 10 μg/mL of ketotifen fumarate (1(2628, Millipore Sigma, St Louis, Mo., USA)+10 μg/mL of 48/80 dissolved in 100 μL serum free media (DMEM with 1.0 g/L glucose) (Thermo Fisher Scientific, Waltham, Mass.) were added to each well and incubated for 45 minutes. Then, the cells were lysed using 1% triton X-100 to determine MC β-hexosaminidase that was still cell associated. Twenty μL of the supernatant and then, the cell lysate was collected and added to 50 μL of cold 4-Nitrophenyl N-acetyl-B-d-glucosaminide (1.3 mg/mL in Citrate Buffer, pH 4.5, Millipore Sigma, St Louis, Mo., USA) to detect the amount of β-hexosaminidase released. […] The plate was read at 405 nm wavelength using a microplate reader (ELx808, BioTek, Winooski, Vt., USA). Degranulation was calculated as the percentage of β-hexosaminidase activity measured in the supernatants relative to the total amount of β-hexosaminidase activity in the cells exposed to 1% triton X-100 (100% degranulation).

[8] = APC 366 5 mg/kg subcutaneous daily, 4 weeks
[9] = oral ketotifen fumarate 15 mg/kg twice daily, 4 weeks post 48/80-hydrogel implantation

Row | Structure (SMILES) | inflammation (transcriptional expression of IL-1β, IL-6, IL-8, CC-motif ligand 2, MMP-3) [1] | RPE degeneration [2, 8] | choroidal macrophage/monocyte activation [2, 8] | retinal and choroidal thickness ([2]; APC 366 5 mg/kg subcutaneous daily, 8 weeks) | ERG amplitude, a- and b-waves ([2]; rat, in vivo, sc, 5 mg/kg) | MC degranulation [2, 9] | RPE degeneration [2, 9] | retina and choroidal thickness ([2]; oral ketotifen fumarate 15 mg/kg twice daily, 8 weeks post implantation) | non-REM and REM sleep [3] | MC degranulation prevented (choroidal MCs [4]) | macrophage activation (choroidal MCs [4]) | RPE morphology or viability ([5]; normal S/D rats, oral 15 mg/kg twice daily for 6 wk) | ERG amplitudes after drug treatment alone ([5]; normal rats, 6 weeks of drug treatment) | adverse effects ([5]; oral administration) | growth of the animals (body weight) ([5]; oral twice daily for 6 wk after 48/80 implantations) | choroidal macrophage activation (sphericity, volume of Iba1+ cells) (choroidal MCs [6]) | prevention of 48/80-induced MC degranulation (choroidal MCs [6]) | ketotifen fumarate in choroid [7] | ketotifen fumarate in retina [7] | inhibition at 10 µg/mL (RBL-2H3 cells)
1 | NC(=O)[C@@H]1CCCN1C(=O)[C@H](CCCN=C(N)N)NC(=O)c1ccc2ccccc2c1O [APC 366] | suppressed inflammation | RPE degeneration was significantly inhibited | choroidal macrophage/monocyte activation was prevented | significantly less retinochoroidal thinning | reduction in ERG amplitude of both a- and b-waves was prevented | – | – | – | – | – | – | – | – | – | – | – | – | – | – | –
2 | CN1CCC(=C2c3ccccc3CC(=O)c3sccc32)CC1 [ketotifen fumarate] | – | – | – | – | – | significantly prevented | significantly prevented RPE degeneration | retinochoroidal thinning was inhibited | dose dependently decreased non-rapid eye movement (REM) sleep and increased REM sleep | 37% | significantly prevented macrophage activation | did not affect RPE morphology or viability | normal | did not manifest any adverse effects | nor did it affect growth of the animals | choroidal macrophage activation was prevented | prevented MC degranulation, equivalent to the level of untreated eyecups | 13 to 29 nM | 12 to 52 nM | 56%
